Test results taken from patent publication US20250243219A1, “MACROCYCLIC COMPOUNDS AND USES THEREOF” (Cypralis Limited, priority 2022, published 2025).
pKi: −log10 of the molar value.

Columns and labels:
[1] = tested on: permeabilised HepG2 cells; experiment: Calcium retention capacity (CRC) assay in permeabilised HepG2 cells (MPTP opening); type: cell-based, human; design: CRC [10 μM]: unit not given here; conditions: compound at 10 μM; for CRC [10 μM]: digitonin permeabilised HepG2 cells; for CRC [10 μM] (ratio vs CsA): normalised to cyclosporin A, value in brackets
Experimental: The use of permeabilised cells means that inhibitory compounds that may not normally enter non-permeabilised cells are more likely to be active.
The calcium retention capacity (CRC) is a measure of the capability of mitochondria to retain calcium, primarily in the form of calcium phosphates, in the mitochondrial matrix.
In a CRC assay, the calcium indicator Calcium Green-5N (InVitrogen) is utilized. […] The assay is carried out in HepG2 (human hepatocellular carcinoma) cells which are digitonin permeabilized. Trains of calcium pulses (typically 5 μM additions) are added which results in a sudden increase in fluorescence which is then reduced by mitochondrial buffering. The cells will reach a point at which the calcium addition is no longer buffered, an indication that the MPTP has opened (mitochondrial permeability transition).
The experiment is performed with and without inhibitor. A compound that acts to inhibit the mitochondrial pore opening will result in a greater requirement for calcium to reach the transition point. The results are normalised to a positive control (cyclosporin A) in each experiment. The results are shown in column 3 of Table 5 as CRC [10 μM] (ratio vs CsA). The method of digitonin permeabilised whole cell CRC assay is similar to that used by Chiara et al. (PLoS One, March, 3, 3, e1852 (2008)).

cyclophilin D = cyclophilin D (Homo sapiens (Human), UniProt P30405); experiment: Functional peptidyl prolyl isomerase (PPIase) spectrophotometric assay, cyclophilin D; type: biochemical; conditions: second value of CypA/D cell; read-out: Ki CypD
Chain of cyclophilin D (P30405 30-207, species assumed): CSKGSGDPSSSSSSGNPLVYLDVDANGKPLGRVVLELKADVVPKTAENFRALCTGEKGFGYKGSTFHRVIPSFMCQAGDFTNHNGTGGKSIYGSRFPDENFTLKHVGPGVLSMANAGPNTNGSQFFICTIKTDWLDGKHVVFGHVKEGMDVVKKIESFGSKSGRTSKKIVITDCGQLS
Source text: (§1) Cyclophilins are enzymes that catalyse the cis-trans isomerisation of peptide bonds to the amino acid proline. This event is important in many biological processes, including protein folding and signal transduction. […] The method to measure this activity and its inhibition is similar to that described by Jankowski (Analytical Biochemistry, 252, 2, 299-307 (1997)). The assay measures the cis to trans isomerisation of a peptide substrate catalysed by a PPlase enzyme using a UV/Vis spectrophotometer. This assay is a manual single cuvette-based assay. A first order rate equation is fitted to the absorbance data to obtain a rate constant. The catalytic rate is calculated from the enzymatic rate minus the background rate. The Ki (the concentration required to produce half maximum inhibition) for an inhibitor is obtained from the rate constant plotted against the inhibitor concentration. Typically, a 6-point dose response curve is obtained from duplicates and a Ki determined. Data are given in Table 5 as Ki [nM] for cyclophilins A and D, expressed in column 2 of Table 5 as Ki (cypA)/Ki (cypD).

cyclophilin A = cyclophilin A (Homo sapiens (Human), UniProt P62937); experiment: Functional peptidyl prolyl isomerase (PPIase) spectrophotometric assay, cyclophilin A; type: biochemical; conditions: first value of CypA/D cell
Chain of cyclophilin A (P62937 whole entry, species assumed): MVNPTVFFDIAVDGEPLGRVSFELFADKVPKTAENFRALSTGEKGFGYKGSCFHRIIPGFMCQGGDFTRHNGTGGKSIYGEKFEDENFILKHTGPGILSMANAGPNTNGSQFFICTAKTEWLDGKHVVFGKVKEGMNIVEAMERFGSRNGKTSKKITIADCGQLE
Source text: as §1

SH-SY5Y cells = experiment: Thapsigargin treated cell death assay in SH-SY5Y cells; type: cell-based, human; conditions: compound at 10 μM, positive = protection from cell death, negative = compound toxicity
Source text: Thapsigargin raises intracellular free calcium (Ca^2+) by potently inhibiting the endoplasmic reticulum Ca-ATPase, which sequesters Ca^2+ from the cytosol. The increased cytosolic Ca^2+ concentration is buffered by mitochondria by exchanging Ca^2+ for K, leading to depolarisation in the inner mitochondrial membrane and permeability transition.
The thapsigargin treated Jurkat cell death assay is a homogeneous 96 well plate based assay for cell death, instigated by the opening of the mitochondrial permeability transition pore (MPTP). The addition of thapsigargin to Jurkat cells results in an influx of calcium, the increase in intracellular calcium will initially be buffered by the mitochondria, but eventually the increasing calcium concentration will result in the opening of the MPTP, resulting in cell death.
CellTox™ Green is a dye which is unable to enter the cell until cell death leads to the loss of membrane integrity. Once this happens the CellTox™ Green enters the cell, binds to the cell's DNA and emits a fluorescent signal. […] Unless otherwise stated, the assay is typically run using a range of three compound concentrations of 1, 3 and 10 μM in triplicate and is read kinetically over a period of 24 hours. Compounds are added 30 minutes before the addition of thapsigargin. Compound only controls and positive control, cyclosporin A (CsA) (3 and 10 μM) are also included in the assay. Results are typically calculated at the 8 hour time point and the kinetic data is also reported.
The assay is carried out as described for the Jurkat cells but using the SH-SY5Y (human neuroblastoma) cell line instead of Jurkat cells. The results are shown in the fourth column of Table 5 (SY5Y [10 μM]% recovery). Positive numbers indicate protection from cell death, negative numbers indicate compound toxicity.

| Compound | CRC [10 μM] [1] | CRC [10 μM] (ratio vs CsA) ([1]; listed as 32) | pKi (cyclophilin D) | pKi (cyclophilin A) | SYSY [10 μM] % recovery (SH-SY5Y cells; listed as 51) [%] | SYSY [10 μM] % recovery (SH-SY5Y cells; listed as 52) [%] | CRC [10 μM] (ratio vs CsA) [1] |
| --- | --- | --- | --- | --- | --- | --- | --- |
| C[C@@H]1NC(=O)[C@@H](CC2CCCNC2)OC(=O)C(C)(C)/C=C/c2ccc3ccc(nc3c2)N(C)N(C)C(=O)[C@@H]2CCCN(N2)C1=O (single isomer, unassigned) [Compound (32)] | 5 | 0.20 | 5.31 | 5.66 |  |  |  |
| C[C@@H]1NC(=O)C(Cc2cccc(N)n2)OC(=O)C(C)(C)/C=C/c2ccc3ccc(nc3c2)N(C)NC(=O)[C@@H]2CCCN(N2)C1=O (single isomer, unassigned) [Compound (51)] |  |  |  |  | 37 |  |  |
| C[C@@H]1NC(=O)C(Cc2cccc(N)n2)OC(=O)C(C)(C)/C=C/c2ccc3ccc(nc3c2)N(C)NC(=O)[C@@H]2CCCN(N2)C1=O (single isomer, unassigned) [Compound (52)] |  |  |  |  |  | 35 |  |
| CC(C)[C@H]1OC(=O)C(C)(C)/C=C/c2ccc3ccc(nc3c2)N(C)NC(=O)[C@@H]2CCCN(N2)C(=O)[C@H](C)NC1=O [Compound (3)] |  |  | 5.89 | 6.26 |  |  | 0.5 |
| CC(C)[C@@H]1OC(=O)C(C)(C)/C=C/c2ccc3ncc(nc3c2)N(C)NC(=O)[C@@H]2CCCN(N2)C(=O)[C@H](C)NC1=O [Compound (4)] | 16.4 |  | 7.89 | 8.48 |  |  |  |
| CC(C)[C@@H]1OC(=O)C(C)(C)CCc2ccc3ccc(nc3c2)N(C)NC(=O)[C@@H]2CCCN(N2)C(=O)[C@H](C)NC1=O [Compound (5)] |  |  | < 8.00 | < 5.00 |  |  |  |
| CC(C)[C@@H]1OC(=O)C(C)(C)/C=C/c2ccc3ccc(nc3c2)N(CCCO)NC(=O)[C@@H]2CCCN(N2)C(=O)[C@H](C)NC1=O [Compound (7)] |  |  | 8.09 | 7.44 |  |  |  |
| CC(C)[C@@H]1OC(=O)C(C)(C)/C=C/c2ccc3ccc(nc3c2)N2CCCN2C(=O)[C@@H]2CCCN(N2)C(=O)[C@H](C)NC1=O [Compound (8)] |  |  | 7.82 | 7.86 |  |  |  |
| CC(=O)N1NC(=O)[C@@H]2CCCN(N2)C(=O)[C@H](C)NC(=O)[C@H](C(C)C)OC(=O)C(C)(C)/C=C/c2ccc3ccc1nc3c2 [Compound (10)] |  |  | 8.06 | 8.28 |  |  |  |
| C[C@@H]1NC(=O)[C@H](Cc2ccc(C(=O)O)cc2)OC(=O)C(C)(C)/C=C/c2ccc3ccc(nc3c2)N(C)N(C)C(=O)[C@@H]2CCCN(N2)C1=O [Compound (11)] | 20 |  | 7.08 | 6.55 |  |  | 0.80 |
| CC(C)C(=O)N1CCC2(/C=C/c3ccc4ccc(nc4c3)N(C)NC(=O)[C@@H]3CCCN(N3)C(=O)[C@H](C)NC(=O)[C@H](C(C)C)OC2=O)CC1 [Compound (15)] | 38 |  | 8.00 | 8.77 |  |  | 1 |
| CC(C)[C@@H]1OC(=O)C2(/C=C/c3ccc4ccc(nc4c3)N(C)NC(=O)[C@@H]3CCCN(N3)C(=O)[C@H](C)NC1=O)COCOC2 [Compound (18)] | 10 |  | 6.43 | 6.59 |  |  | 0.33 |
| CC(C)[C@@H]1NCC(C)(C)/C=C/c2ccc3ccc(nc3c2)N(C)NC(=O)[C@@H]2CCCN(N2)C(=O)[C@H](C)NC1=O [Compound (20)] | 22.5 |  | 6.85 | 7.00 |  |  | 0.57 |
| CC(C)[C@H]1C(=O)N[C@@H](C)C(=O)N2CCC[C@H](N2)C(=O)NN(C)c2ccc3ccc(cc3n2)/C=C/C(C)(C)CN1C [Compound (23)] | 12.5 |  | 6.59 | 7.04 |  |  | 0.38 |
| C[C@@H]1NC(=O)[C@H](C2CCCC2)CC(=O)C(C)(C)/C=C/c2ccc3ccc(nc3c2)N(C)NC(=O)[C@@H]2CCCN(N2)C1=O [Compound (24)] |  |  | 7.92 | 7.72 |  |  |  |
| C[C@@H]1NC(=O)[C@@H](CC2CCCN(C)C2)OC(=O)C(C)(C)/C=C/c2ccc3ccc(nc3c2)N(C)NC(=O)[C@@H]2CCCN(N2)C1=O (stereo partly shown) [Compound (28)] | 5 |  |  | 5.23 |  |  | 0.17 |
| CC(=O)N1CCC[C@@H](C[C@@H]2OC(=O)C(C)(C)/C=C/c3ccc4ccc(nc4c3)N(C)NC(=O)[C@@H]3CCCN(N3)C(=O)[C@H](C)NC2=O)C1 [Compound (29)] | 20 |  | 6.77 | 7.29 |  |  | 0.67 |
| C[C@@H]1NC(=O)[C@H](Cc2ccc(O)cc2)OC(=O)C(C)(C)/C=C/c2ccc3ccc(nc3c2)N(C)NC(=O)[C@@H]2CCCN(N2)C1=O [Compound (42)] | 25 |  | 8.24 | 8.92 |  |  | 0.8 |
| C[C@@H]1NC(=O)[C@H](CN2CCCCC2)OC(=O)C(C)(C)/C=C/c2ccc3ccc(nc3c2)N(C)NC(=O)[C@@H]2CCCN(N2)C1=O [Compound (44)] | 5 |  | 6.85 | 6.23 |  |  | 0.33 |
| CC(C)C(=O)N1CCN(C[C@@H]2OC(=O)C(C)(C)/C=C/c3ccc4ccc(nc4c3)N(C)NC(=O)[C@@H]3CCCN(N3)C(=O)[C@H](C)NC2=O)C[C@@H]1C [Compound (45)] | 15 |  | 6.85 | 7.21 |  |  | 0.60 |
| CC(C)NC(=O)c1ccc(C[C@@H]2OC(=O)C(C)(C)/C=C/c3ccc4ccc(nc4c3)N(C)NC(=O)[C@@H]3CCCN(N3)C(=O)[C@H](C)NC2=O)cc1 [Compound (47)] | 17.5 |  | 7.68 | 7.57 |  |  | 1.00 |
| C[C@@H]1NC(=O)[C@H](CC2CCNCC2)OC(=O)C(C)(C)/C=C/c2ccc3ccc(nc3c2)N(C)NC(=O)[C@@H]2CCCN(N2)C1=O [Compound (58)] | 8.3 |  | 7.26 | 7.10 |  |  | 0.38 |
| C[C@@H]1NC(=O)[C@H](C2CCOCC2)OC(=O)C(C)(C)/C=C/c2ccc3ccc(nc3c2)N(C)NC(=O)[C@@H]2CCCN(N2)C1=O [Compound (59)] | 17.5 |  | 7.42 | 7.43 |  |  | 0.85 |
| CC(C)[C@@H]1OC(=O)C(C)(C)/C=C/c2ccc3ccc(nc3c2)N(C)NC(=O)[C@@H]2CCCN(N2)C(=O)[C@H](CCC(=O)O)NC1=O [Compound (62)] |  |  | 8.02 | 8.25 |  |  |  |
| CC(C)[C@@H]1OC(=O)C(C)(C)/C=C/c2ccc3ccc(nc3c2)N(C)NC(=O)[C@@H]2CCCN(N2)C(=O)[C@@H](Cc2ccccc2)NC1=O [Compound (77)] | 15 |  | 6.15 |  |  |  | 0.39 |
| CC(C)[C@@H]1OC(=O)C(C)(C)/C=C/c2ccc3ccc(nc3c2)N(C)NC(=O)[C@@H]2CCCN(N2)C(=O)[C@H](Cc2ccncc2)NC1=O [Compound (78)] | >10,000 |  | 6.44 |  |  |  |  |
| CC(C)[C@H]1CC(=O)C(C)(C)/C=C/c2ccc3ccc(nc3c2)N(C)NC(=O)[C@@H]2CCCN(N2)C(=O)[C@H](C)NC1=O [Compound (82)] |  |  | 6.82 | 6.49 |  |  |  |
